According to ChEMBL document CHEMBL1135518 (J Med Chem, 2002):

Key:
Rattus norvegicus [1] = assay: The increase in the extracellular levels of 5-HIAA in the rat ventral hippocampus at a dose of 2.5 mg/kg sc measured by in vivo microdialysis; format: functional; details: route subcutaneous
[2] = target: T1, Adrenergic receptor alpha-2 (Rattus norvegicus, UniProt P22086+P19328+P22909); assay: The binding affinity at the Alpha-2 adrenergic receptor determined using [3H]RX-821002; format: protein assay
T1 sequence (P22086 whole entry): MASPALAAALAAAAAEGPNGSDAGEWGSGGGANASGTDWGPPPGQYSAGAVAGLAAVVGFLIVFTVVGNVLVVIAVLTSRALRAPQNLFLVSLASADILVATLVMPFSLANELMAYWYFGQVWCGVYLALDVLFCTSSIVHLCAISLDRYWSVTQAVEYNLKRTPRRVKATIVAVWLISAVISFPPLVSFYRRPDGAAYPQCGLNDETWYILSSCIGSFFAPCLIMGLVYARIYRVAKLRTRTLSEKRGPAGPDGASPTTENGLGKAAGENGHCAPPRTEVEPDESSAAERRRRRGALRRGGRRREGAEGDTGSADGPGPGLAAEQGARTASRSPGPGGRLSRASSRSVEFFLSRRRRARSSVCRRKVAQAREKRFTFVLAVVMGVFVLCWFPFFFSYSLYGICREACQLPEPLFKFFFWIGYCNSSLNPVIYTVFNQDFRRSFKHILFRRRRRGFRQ
T1 sequence (P19328 whole entry): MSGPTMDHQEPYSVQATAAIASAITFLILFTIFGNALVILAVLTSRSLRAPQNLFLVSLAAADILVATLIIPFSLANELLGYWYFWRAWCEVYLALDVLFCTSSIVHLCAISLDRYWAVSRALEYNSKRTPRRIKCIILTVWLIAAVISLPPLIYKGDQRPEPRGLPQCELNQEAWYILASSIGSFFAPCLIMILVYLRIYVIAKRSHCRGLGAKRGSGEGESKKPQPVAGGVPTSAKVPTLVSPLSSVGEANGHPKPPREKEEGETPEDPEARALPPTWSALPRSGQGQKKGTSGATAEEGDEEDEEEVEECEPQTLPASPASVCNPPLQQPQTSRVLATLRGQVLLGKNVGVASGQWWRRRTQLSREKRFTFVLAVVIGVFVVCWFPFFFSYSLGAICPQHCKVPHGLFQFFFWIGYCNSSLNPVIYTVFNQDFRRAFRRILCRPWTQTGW
T1 sequence (P22909 whole entry): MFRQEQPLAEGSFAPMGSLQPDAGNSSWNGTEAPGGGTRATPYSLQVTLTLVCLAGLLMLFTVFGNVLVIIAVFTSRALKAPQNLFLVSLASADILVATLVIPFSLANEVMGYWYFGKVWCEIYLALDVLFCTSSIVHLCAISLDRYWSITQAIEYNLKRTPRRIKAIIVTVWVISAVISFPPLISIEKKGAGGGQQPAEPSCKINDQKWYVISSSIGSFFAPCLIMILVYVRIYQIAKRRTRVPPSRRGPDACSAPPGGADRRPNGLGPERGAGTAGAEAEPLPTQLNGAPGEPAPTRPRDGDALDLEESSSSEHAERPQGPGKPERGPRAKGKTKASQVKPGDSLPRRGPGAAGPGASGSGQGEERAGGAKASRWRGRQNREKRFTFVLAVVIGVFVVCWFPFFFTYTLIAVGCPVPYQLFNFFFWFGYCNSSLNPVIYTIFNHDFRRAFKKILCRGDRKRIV

Rattus norvegicus [3] = assay: The increase in the extracellular levels of DOPAC in the rat ventral hippocampus at a dose of 2.5 mg/kg sc measured by in vivo microdialysis; format: functional; details: route subcutaneous
Rattus norvegicus [4] = assay: The increase in the extracellular levels of NA in the rat ventral hippocampus at a dose of 2.5 mg/kg sc measured by in vivo microdialysis; format: functional; details: route subcutaneous
Rattus norvegicus [5] = assay: The increase in the extracellular levels of 5-HT in the rat ventral hippocampus at a dose of 2.5 mg/kg sc measured by in vivo microdialysis; format: functional; details: route subcutaneous
Rattus norvegicus [6] = assay: The increase in the extracellular levels of NA in the rat ventral hippocampus at a dose of 5.0 mg/kg sc measured by in vivo microdialysis; format: functional; details: route subcutaneous
Rattus norvegicus [7] = assay: The increase in the extracellular levels of 5-HT in the rat ventral hippocampus at a dose of 5.0 mg/kg sc measured by in vivo microdialysis; format: functional; details: route subcutaneous
Rattus norvegicus [8] = assay: The increase in the extracellular levels of DOPAC in the rat ventral hippocampus at a dose of 5.0 mg/kg sc measured by in vivo microdialysis; format: functional; details: route subcutaneous

Compound | Increase (Rattus norvegicus [1]) [%] | Ki [2] [nM] | Increase (Rattus norvegicus [3]) [%] | Increase (Rattus norvegicus [4]) [%] | Increase (Rattus norvegicus [5]) [%] | Increase (Rattus norvegicus [6]) [%] | Increase (Rattus norvegicus [7]) [%] | Increase (Rattus norvegicus [8]) [%]
COc1cccc2c1N1CCN(C)C[C@@H]1c1ccccc1C2 | 120 | 73 | 130 | 200 | 200 | – | – | –
COc1cccc2c1N1CCN(C)C[C@H]1c1ccccc1C2 | 120 | 37 | 160 | – | 200 | 200 | – | –
COc1cccc2c1N1CCN(C)CC1c1ccccc1C2 (racemic) | – | – | – | – | – | 200 | 200 | 160
